# How the values were obtained:
# MAO-A = molecular target: T1, MAO-A (Mus musculus, UniProt Q64133); test: L-5-HTP-induced symptoms test; format: in vivo, CD1 mice
# T1 construct: from tissue; host or cells: mouse brain (homogenate ex vivo; living animal in the L-5-HTP test)
# T1 sequence (Q64133 1-526): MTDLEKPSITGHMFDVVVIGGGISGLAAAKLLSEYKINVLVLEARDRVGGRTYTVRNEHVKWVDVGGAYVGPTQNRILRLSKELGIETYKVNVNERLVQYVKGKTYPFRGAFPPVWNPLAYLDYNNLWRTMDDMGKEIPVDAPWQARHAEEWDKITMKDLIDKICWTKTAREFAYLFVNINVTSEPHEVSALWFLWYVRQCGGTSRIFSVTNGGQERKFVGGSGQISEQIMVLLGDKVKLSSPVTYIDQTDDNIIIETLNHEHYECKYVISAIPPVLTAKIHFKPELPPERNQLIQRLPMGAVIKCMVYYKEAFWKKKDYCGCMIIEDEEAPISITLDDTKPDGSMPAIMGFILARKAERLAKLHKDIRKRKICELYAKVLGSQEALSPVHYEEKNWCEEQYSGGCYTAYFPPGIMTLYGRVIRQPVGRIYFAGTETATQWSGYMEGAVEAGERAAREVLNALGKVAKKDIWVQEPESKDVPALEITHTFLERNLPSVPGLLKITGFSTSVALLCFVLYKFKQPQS
# Description: Male C57BL/6 mice (8 weeks of age, 25-30 g) procured from Harlan Interfauna Iberica were housed in the same condition that in MAO-B PEA section. This test was performed essentially as previously described. Test compound was administered p.o. at several dose levels to groups of mice (N = 10/dose) 60 min before an i.p. injection of L-5-HTP (100 mg/kg). This dose of 5-L-HTP produced no effects in control animals. […] Studies were performed in accordance with the institutional guidelines for the care and use of laboratory animals (European Communities Council Directive 86/609/EEC) established by the Ethical Committee for Animal Experimentation at the PRAAL-PCB.
# This test was performed essentially as previously described [90](Koe et al., 1983). Test compound was administered p.o. at several dose levels 60 min before an i.p. injection of L-5-HTP. […] One score assigned to each symptom observed per animal, giving a maximal obtainable score of 30 per group of 10 mice.
# Behavior was rated as outline above.
# MAO-B [1] = molecular target: MAO-B (Mus musculus, UniProt Q8BW75); conditions: p.o. gavage, followed by 25 mg/kg PEA
# MAO-B (Mus musculus, UniProt Q8BW75), sequence (Q8BW75 whole entry): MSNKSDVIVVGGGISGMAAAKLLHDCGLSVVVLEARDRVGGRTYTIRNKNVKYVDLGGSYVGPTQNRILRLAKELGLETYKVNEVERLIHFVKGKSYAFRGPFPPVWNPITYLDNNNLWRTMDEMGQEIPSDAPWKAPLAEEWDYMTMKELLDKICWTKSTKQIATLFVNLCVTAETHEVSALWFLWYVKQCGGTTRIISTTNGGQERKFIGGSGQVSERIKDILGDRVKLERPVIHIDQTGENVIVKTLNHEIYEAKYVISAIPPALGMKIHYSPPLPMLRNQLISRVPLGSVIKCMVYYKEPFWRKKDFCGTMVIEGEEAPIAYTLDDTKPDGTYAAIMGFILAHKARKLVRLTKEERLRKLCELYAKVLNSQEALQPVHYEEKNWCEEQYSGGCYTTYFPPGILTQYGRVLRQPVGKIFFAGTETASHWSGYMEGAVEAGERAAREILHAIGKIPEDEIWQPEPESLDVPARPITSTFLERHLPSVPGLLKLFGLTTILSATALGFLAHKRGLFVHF
# SETD1 +/- mice = system: SETD1 +/- mice; parameters: method as in PMID 31606247; conditions: cited from earlier work
# SAMP8 mice = test: Novel Object Recognition Test (NORT); format: in vivo, mouse; conditions: 3 mg/kg/day (Exp4), p = 0.12
# Description: Both male and female mice from the senescence accelerated strain SAMP8 and its control SAMR1 of different ages (see Table S3 for details) were used in these studies. Mice were breed in the animal facilities of the Pharmacy Faculty (University of Barcelona), maintained in a at 22 ± 2 °C controlled temperature in a 12 hr light / dark cycle (lights on at 8:00 am; 300 lux/0 lux) with ad libitum access to food (2018 TEKLAD, Harlan) and water. Male mice were housed individually (males) or in groups of 4-5 animals (females) in plastic colony boxes with a sawdust bedding material. […] SAMR1 mice treated with vehicle were included as a control. All drugs were administered via drinking water and diluted in vehicle. Drug concentration was calculated weekly in function of body weight and corrected in function of drinking water consumption. Cognitive function was evaluated by NORT, social behavior was evaluated by RI and anxiety and motor function were evaluated by EPM and OF. When necessary, animals were deeply anesthetized (80 mg/kg sodium pentobarbital) and brain samples (hippocampus, (prefrontal) cortex) were micro-dissected and processed according to the downstream analysis.
# The protocol was performed as previously described. Briefly, animals were placed in a 90°- two-arm maze. Mice were habituated to the apparatus for 10 min during 3 consecutive days. On day 4, two identical novel objects (A+A or B+B) were placed at the end of each arm and animals performed a 10-min acquisition trial. A 10-min retention trial was carried out 2 hr after the acquisition trial with object A and B. Time exploring the novel (NO) and the familiar object (FO) was measured and a discrimination Index (DI) was defined as (NO-FO)/(NO+FO). In some experiments, a more restrictive threshold was applied and animals exploring less than 5 sec (NO+FO) were excluded from the analysis (Table S3).
# Novel Object Recognition Test (NORT): Time exploring the novel (NO) and the familiar object (FO) was measured and a discrimination Index (DI) was defined as (NO-FO)/(NO+FO). In some experiments, a more restrictive threshold was applied and animals exploring less that 5 sec (NO+FO) were excluded from the analysis (Table S3). Open Field (OF): Locomotor activity was analyzed by video-tracking over the captured images using SMART® (v 2.5.21 (rat) or v3.0 (mice), PanLab, SLU, Spain).
# MAO-B [2] = conditions: 3 mg/kg/day; cited from earlier work
# brain MAO-B = molecular target: T2, brain MAO-B (Mus musculus, UniProt Q8BW75); test: MPTP neurotoxicity model; format: in vivo, C57BL/6 mice; conditions: i.p. 3 mg/kg
# T2 construct: from tissue; host or cells: mouse brain (homogenate ex vivo; living animal in the MPTP and PEA tests)
# T2 sequence (Q8BW75 whole entry): as above
# KDM1A-E8a KO mice = system: KDM1A-E8a KO mice; parameters: method as in PMID 26976584; conditions: cited from earlier work
# [3] = system: NMDA receptor NR1 subunit hypofunction mice; parameters: method as in PMID 30580376; conditions: cited from earlier work
compound,measurement,setting,value
"N[C@@H]1C[C@H]1c1ccccc1 (racemic) [TCP, tranylcypromine]",ED50 potentiation of L-5-HTP-induced symptoms,"MAO-A; p.o. gavage, followed by 100 mg/kg L-5-HTP i.p.",1.4 mg/kg
same,ED50 potentiation of PEA-induced symptoms,MAO-B [1],1.1 mg/kg
N[C@H]1CC[C@H](N[C@@H]2C[C@H]2c2ccccc2)CC1 [Iadademstat],cortical synaptic plasticity deficit and working memory,SETD1 +/- mice,reversed cortical synaptic plasticity deficit and the working memory
"C#CCN[C@@H]1CCc2ccccc21 [RSG, rasagiline]",NORT discrimination capacity,SAMP8 mice,tendency for improvement without reaching significance
same,MAO-B inhibition at the dose used,MAO-B [2],complete MAO-B inhibition
same,protection against the MPTP insult,brain MAO-B,full protection
O=C(CCCCCCC(=O)Nc1ccccc1)NO [SAHA],deficient stress response and low anxiety phenotype,KDM1A-E8a KO mice,rescued
"C#CCN(C)[C@H](C)Cc1ccccc1 [SLG, selegiline]",ED50,"MAO-A; mouse, read-out: ED50 potentiation of L-5-HTP-induced symptoms",42.2 mg/kg
Cc1nnc(NC(=O)c2cccc([C@@H]3C[C@H]3NC3CCC3)c2)s1 [T-448],learning function,[3],improved the learning function
